Reference: paper PMC7140114 (Cancers, 2020)
Numbered stars: 1 amine (or outer) side, 2 acyl side, 3 side chain; on linkers, the order of the positions; unused ones are H or OH. Square brackets hold non-standard residues; d marks the D form. Peptide text beside a SMILES is read from it. * marks the point of attachment. Dolaproine = CO[C@@H]([C@@H]1CCCN1)[C@@H](C)C(=O)O; X1 = N[C@@H](CSC1CC(=O)N(CCCCCC(=O)*)C1=O)C(=O)O; Dil = CC[C@H](C)[C@H](NC)[C@@H](CC(=O)O)OC; PABC = O=C(OCc1ccc(N[*:1])cc1)[*:2]; X2 = C[C@@H](N*)[C@@H](O)c1ccccc1; NMeV = CN[C@H](C(=O)O)C(C)C

How the values were obtained:
[1] = tested on: MCF-7 cells; assay: In vitro cytotoxicity (CellTiter-Glo, 7 days), MCF-7; type: cell-based, human; settings: MCF-7, HER2−; for IC50: Homo sapiens, MCF7, 168 h
Description: (§1) Human HER2-positive cell lines (BT-474, HCC1954, and NCI-N87) and HER2-negative cell lines (MCF-7 and MDA-MB-468) were purchased from the ATCC. Tumor cells were cultured in Roswell Park Memorial Institute (RPMI)-1640 medium (Cellgro, Manassas, VA, USA) supplemented with 10% fetal bovine serum (Invitrogen, Carlsbad, CA, USA) and GlutaMAX (Invitrogen, Carlsbad, CA, USA). Cells (3.3 × 10^4 cells/well) were added to each well of 384-well plates and incubated at 37 °C overnight, after which 10 μL of compound aliquots were added to the assay plate. […] Then, the plates were removed from the incubator and equilibrated at room temperature for 10 min. The Cell Titer Glo® (CTG, Promega, Madison, WI, USA) reagents were incubated at 37 °C before the experiment. The buffer was equilibrated to room temperature and used to dissolve the substrate. Then, 40 μL of CTG reagent was added to each well for detection (at 1:1 ratio to the culture medium).

[2] = tested on: cells (cellular level); settings: cited from earlier work
[3] = tested on: tubulin; assay: Tubulin polymerization inhibition assay (fluorescence-based kit); type: biochemical; settings: tested at 0.1-30 μM; mean of triplicate
Text: In this study, we used a molecular-level tubulin inhibition assay to rapidly assess the efficacy of ionized conjugates to circumvent the effects of the differences in membrane permeability. […] All of the tested Cys-linker-MMAE conjugates produced concentration-dependent inhibition of tubulin polymerization, providing a basis for developing ADCs with Cys-linker-MMAE as potent payloads.
We used the Tubulin Polymerization Assay Kit (Cat. # BK011P, Cytoskeleton, Inc., Denver, CO, USA) according to the manufacturer’s instructions for this fluorescence-based test. Before this test, the linker-MMAE conjugates were added to an L-cysteine solution (0.3 mmol/L in H2O, 900 μL), and the mixture was incubated for 10 min at room temperature for the conversion to Cys-linker-MMAE conjugates according to previously reported methods.

[4] = tested on: NCI-N87 cells; assay: In vitro cytotoxicity (CellTiter-Glo, 7 days), NCI-N87; type: cell-based, human; settings: NCI-N87, HER2+++; for IC50: Homo sapiens, 168 h
Description: as §1

[5] = tested on: HCC1954 cells; assay: In vitro cytotoxicity (CellTiter-Glo, 7 days), HCC1954; type: cell-based, human; settings: HCC1954, HER2+++; for IC50: Homo sapiens, 168 h
Description: as §1

[6] = tested on: MDA-MB-468 cells; assay: In vitro cytotoxicity (CellTiter-Glo, 7 days), MDA-MB-468; type: cell-based, human; settings: MDA-MB-468, HER2−; for IC50: Homo sapiens, 168 h
Description: as §1

[7] = tested on: BT-474 cells; assay: In vitro cytotoxicity (CellTiter-Glo, 7 days), BT-474; type: cell-based, human; settings: BT-474, HER2+++; for IC50: Homo sapiens, 168 h
Description: as §1

[8] = tested on: HER2-positive cell lines (BT-474, HCC1954, and NCI-N87) and HER2-negative cell lines (MCF-7, and MDA-MB-468); assay: In vitro cytotoxicity, summary over the cell line panel; type: cell-based, human; settings: from Table 2 IC50 values
Description: as §1

For `CCC(C)C(C(CC(=O)N1CCCC1C(OC)C(C)C(=O)NC(C)C(O)c1ccccc1)OC)N(C)C(=O)C(NC(=O)C(NC)C(C)C)C(C)C` (centres unmarked) [MMAE, Monomethyl auristatin E], the IC50 [1] is listed as 0.29 nM, the “Max. Inhibition” value [1] is listed as 93.14% and the IC50 [2] is listed as 0.01 to 1 nM. For the same molecule, the EC50 [3] was 1430 nM, the IC50 [4] was 0.07 nM and the “Max. Inhibition” value [4] was 89.37%. The “Max. Inhibition” value [5] was 97.54%, the IC50 [5] was 0.07 nM and the IC50 [6] was 0.17 nM. For the same molecule, the “Max. Inhibition” value [7] was 79.09% and the IC50 [7] was 0.32 nM.

In the case of `CC[C@H](C)[C@@H]([C@@H](CC(=O)N1CCC[C@H]1[C@H](OC)[C@@H](C)C(=O)N[C@H](C)[C@@H](O)c1ccccc1)OC)N(C)C(=O)[C@@H](NC(=O)[C@H](C(C)C)N(C)C(=O)OCc1ccc(NC(=O)CCCCCN2C(=O)CC(SC[C@H](N)C(=O)O)C2=O)cc1)C(C)C` (some centres unmarked) [Cys-15] ({X1-PABC}-[NMeV]V[Dil][Dolaproine]-X2), the IC50 [1] is reported as 51.2 nM, the “Max. Inhibition” value [1] is reported as 91.13% and the EC50 [3] is reported as 2320 nM. The “Decrease in activity compared to MMAE in each cell line” value [8] was 22–177 fold, the IC50 [4] was 8.67 nM and the “Max. Inhibition” value [4] was 94.86%. The “Max. Inhibition” value [5] was 98.86%, the IC50 [5] was 2.31 nM and the IC50 [6] was 11.1 nM. For the same molecule, the “Max. Inhibition” value [6] was 85.75%, the “Max. Inhibition” value [7] was 82.62% and the IC50 [7] was 6.88 nM.
